From patent US10611750B2, “Tetrahydroquinoline compositions as bet bromodomain inhibitors” (FORMA Therapeutics, Inc., priority 2013, dated 2020)
pIC50: −log10 of the molar value.

Legend:
[1] = molecular target: T1, BRD4 Bromodomain 2 (BRD4 BD2) (Homo sapiens, UniProt O60885); assay: AlphaScreen binding assay, BRD4 BD2; settings: His-tagged BRD4 BD2 100 nM, biotinylated H4 (1-21) K5/8/12/16 tetra-acetylated peptide 100 nM, compounds listed under IC50 range headings
T1 construct: 333-460 were cloned, expressed, and purified to homogeneity
Experimental: The binding of Example compounds to BRD4 Bromodomain 1 and BRD4 Bromodomain 2 was assessed using 384-well AlphaScreen assay technology. His-epitope tagged BRD4 BD144-168 and BRD4 BD2333-460 were cloned, expressed, and purified to homogeneity. BRD4 BD1 and BRD4 BD2 binding and inhibition was assessed by monitoring the engagement of biotinylated Histone H4 (1-21) K5/8/12/16 tetra-acetylated peptide with the targets using the AlphaScreen technology (PerkinElmer). Specifically, in a 384-well black or white flat bottom plate, BRD4 BD1 (50 nM final) or BRD4 BD2 (100 nM final) was combined with peptide (50 nM final for BD1 or 100 nM final for BD2) in 50 mM HEPES (pH 7.3), 100 mM NaCl, 0.1% (w/v) BSA, and 0.01% (w/v) Triton X-100 either in the presence of DMSO (final 1.25% DMSO) or compound dilution series in DMSO. Alpha streptavidin donor beads and Nickel-chelate acceptor beads were added to a final concentration of 10 μg/ml each. After a minimum of 1 hour equilibration, plates were read on a BMG PHERAstar FS multi-label reader (BMG LabTech). The half maximal inhibitory concentration (IC50) values were calculated using IDBS Activity Base software with a four parameter logistic curve fit by the equation y=A+((B−A)/(1+((C/x)^D))), wherein A denotes the bottom plateau of the curve, B denotes the top plateau of the curve, C denotes the x value at the middle of the curve, D denotes the slope factor, x denotes the original known x values, and y denotes the original known y values. Data was fitted using the Levenburg Marquardt algorithm.

[2] = molecular target: T2, BRD4 Bromodomain 1 (BRD4 BD1) (Homo sapiens, UniProt O60885); assay: AlphaScreen binding assay, BRD4 BD1; settings: His-tagged BRD4 BD1 50 nM, biotinylated H4 (1-21) K5/8/12/16 tetra-acetylated peptide 50 nM, compounds listed under IC50 range headings
T2 construct: 44-168 and BRD4 BD2
Procedure, shortened: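 Compound dilution series were mixed with His-tagged BRD4 bromodomain and biotinylated tetra-acetylated H4 (1-21) peptide at pH 7.3 (BD1 and peptide at 50 nM, BD2 and peptide at 100 nM). Donor and acceptor beads were then added, and plates were equilibrated at least 1 h before reading. IC50 values were fitted with a four-parameter logistic model.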

pIC50 [1]	pIC50 [2]	SMILES
≤ 6.30	≤ 5.00	CC(=O)N1c2ccc(-c3cnn(C4CC4)c3)c(OCS(N)(=O)=O)c2CC[C@@H]1C [I-45, (S)-(1-acetyl-6-(1-cyclopropyl-1H-pyrazol-4-yl)-2-methyl-1,2,3,4-tetrahydroquinolin-5-yloxy)methanesulfonamide]
6.30 to 7.30	5.00 to 6.00	CC(=O)N1c2ccc(-c3cnn(C4CCNCC4)c3)c(OCC(=O)N(C)C)c2CC[C@@H]1C [I-419]
≤ 6.30	5.00 to 6.00	CC(=O)N1c2ccc(-c3ccc(NS(C)(=O)=O)cc3)c(OCC(=O)N(C)C)c2CC[C@@H]1C [I-495]
6.30 to 7.30	5.00 to 6.00	CC(=O)N1c2ccc(-c3cnn(C4CC4)c3)c(Oc3nccc(C(F)(F)F)n3)c2CC[C@@H]1C [I-85, (S)-1-(6-(1-cyclopropyl-1H-pyrazol-4-yl)-2-methyl-5-(4-(trifluoromethyl)pyrimidin-2-yloxy)-3,4-dihydroquinolin-1 (2H)-yl)ethanone]
6.30 to 7.30	5.00 to 6.00	CNC(=O)COc1c(-c2cnn(C3CC3)c2)ccc2c1CC[C@H](C)N2C(C)=O [I-383]
6.30 to 7.30	5.00 to 6.00	COC(=O)N1c2ccc(-c3cnn(CCS(C)(=O)=O)c3)c(OCC3CCOCC3)c2CC[C@@H]1C [I-448]
≤ 6.30	≤ 5.00	CC(=O)N1c2ccc(-c3cnn(C4CC4)c3)c(OCc3nc4ccccc4o3)c2CC[C@@H]1C [I-481]
6.30 to 7.30	5.00 to 6.00	COC(=O)N1c2ccc(-c3cnn(CCO)c3)c(OCCN(C)S(C)(=O)=O)c2CC[C@@H]1C [I-473]
6.30 to 7.30	5.00 to 6.00	COC(=O)N1c2ccc(-c3cnn(CCS(C)(=O)=O)c3)c(OC[C@H]3CCC(=O)N3)c2CC[C@@H]1C [I-467]
6.30 to 7.30	5.00 to 6.00	COC(=O)N1c2ccc(-c3cnn(CCS(C)(=O)=O)c3)c(OCCN(C)S(C)(=O)=O)c2CC[C@@H]1C [I-471]
≤ 6.30	5.00 to 6.00	CC(=O)N1c2ccc(-c3cnn(C4CC4)c3)c(OCCN(C)C)c2CC[C@@H]1C [I-386]
6.30 to 7.30	5.00 to 6.00	CC(=O)N1c2ccc(-c3cnn(CCO)c3)c(OC[C@H]3CCC(=O)N3)c2CC[C@@H]1C [I-434]
≤ 6.30	5.00 to 6.00	CC(=O)N1c2ccc(-c3cccc(S(C)(=O)=O)c3)c(OCC(=O)N(C)C)c2CC[C@@H]1C [I-493]
6.30 to 7.30	5.00 to 6.00	CC(=O)N1c2ccc(-c3cnn(CC(C)(C)O)c3)c(OCCN(C)S(C)(=O)=O)c2CC[C@@H]1C [I-437]
6.30 to 7.30	5.00 to 6.00	COC(=O)N1c2ccc(-c3cnn(CC(C)(C)O)c3)c(OCCN(C)S(C)(=O)=O)c2CC[C@@H]1C [I-472]
6.30 to 7.30	5.00 to 6.00	CC(=O)N1c2ccc(-c3cnn(C4CC4)c3)c(O/C=C/Cl)c2CC[C@@H]1C [I-277, (S,E)-1-(5-(2-chlorovinyloxy)-6-(1-cyclopropyl-1H-pyrazol-4-yl)-2-methyl-3,4-dihydroquinolin-1(2H)-yl)ethanone]
6.30 to 7.30	5.00 to 6.00	COC(=O)N1c2ccc(-c3cnn(CCS(C)(=O)=O)c3)c(OCC(=O)N(C)C)c2CC[C@@H]1C [I-452]
6.30 to 7.30	5.00 to 6.00	CC(=O)N1c2ccc(-c3cnn(C4CCNCC4)c3)c(OCCN(C)S(C)(=O)=O)c2CC[C@@H]1C [I-439]
≤ 6.30	5.00 to 6.00	CC(=O)N1c2ccc(-c3cnn(C4CC4)c3)c(OCC(=O)N(C)C3CC3)c2CC[C@@H]1C [I-6, (S)-2-(1-acetyl-6-(1-cyclopropyl-1H-pyrazol-4-yl)-2-methyl-1,2,3,4-tetrahydroquinolin-5-yloxy)-N-cyclopropyl-N-methylacetamide]
6.30 to 7.30	5.00 to 6.00	CC(=O)N1c2ccc(-c3cnn(C4CCNCC4)c3)c(OC[C@H]3CCC(=O)N3)c2CC[C@@H]1C [I-435]
6.30 to 7.30	5.00 to 6.00	CNC(=O)COc1c(-c2cnn(C3COC3)c2)ccc2c1CC[C@H](C)N2C(C)=O [I-378]
6.30 to 7.30	5.00 to 6.00	CC(=O)N1c2ccc(-c3cnn(C4CC4)c3)c(OCCC3COC3)c2CC[C@@H]1C [I-47, (S)-1-(6-(1-cyclopropyl-1H-pyrazol-4-yl)-2-methyl-5-(2-(oxetan-3-yl)ethoxy)-3,4-dihydroquinolin-1(2H)-yl)ethanone]

pIC50 [1]	pIC50 [2]	SMILES
6.30 to 7.30	5.00 to 6.00	CC(=O)N1c2ccc(-c3cnn(CC(C)(C)O)c3)c(OCC3CCOCC3)c2CC[C@@H]1C [I-414]
6.30 to 7.30	5.00 to 6.00	COC(=O)N1c2ccc(-c3cnn(CCO)c3)c(OCC(=O)N(C)C)c2CC[C@@H]1C [I-3, (S)-methyl 5-(2-(dimethylamino)-2-oxoethoxy)-6-(1-(2-hydroxyethyl)-1H-pyrazol-4-yl)-2-methyl-3,4-dihydroquinoline-1(2H)-carboxylate]
6.30 to 7.30	5.00 to 6.00	CC(=O)N1c2ccc(-c3cnn(CCS(C)(=O)=O)c3)c(OC[C@H]3CCC(=O)N3)c2CC[C@@H]1C [I-432]
6.30 to 7.30	5.00 to 6.00	CC(=O)N1c2ccc(-c3cnn(C4CC4)c3)c(OCCC(F)(F)F)c2CC[C@@H]1C [I-41, (S)-1-(6-(1-cyclopropyl-1H-pyrazol-4-yl)-2-methyl-5-(3,3,3-trifluoropropoxy)-3,4-dihydroquinolin-1 (2H)-yl)ethanone]
6.30 to 7.30	5.00 to 6.00	COC(=O)N1c2ccc(-c3cnn(CCO)c3)c(OCC(C)C)c2CC[C@@H]1C [I-457]
6.30 to 7.30	5.00 to 6.00	CCCOc1c(-c2cnn(CCS(C)(=O)=O)c2)ccc2c1CC[C@H](C)N2C(=O)OC [I-441]
6.30 to 7.30	5.00 to 6.00	CC(=O)N1c2ccc(-c3cnn(C4CC4)c3)c(OCc3ncc(C)o3)c2CC[C@@H]1C [I-478]
6.30 to 7.30	5.00 to 6.00	CC(=O)N1c2ccc(-c3cnn(C4COC4)c3)c(OCCNS(C)(=O)=O)c2CC[C@@H]1C [I-380]
> 7.30	5.00 to 6.00	CC(=O)N1c2ccc(-c3ccc(S(C)(=O)=O)cc3)c(Oc3ccccc3)c2CCC1C (racemic) [I-111, rac-1-(2-methyl-6-(4-(methylsulfonyl)phenyl)-5-phenoxy-3,4-dihydroquinolin-1(2H)-yl)ethanone]
6.30 to 7.30	5.00 to 6.00	COC(=O)N1c2ccc(-c3cnn(C4CC4)c3)c(OCC(=O)N3CCOCC3)c2CC[C@@H]1C [I-26, (S)-methyl 6-(1-cyclopropyl-1H-pyrazol-4-yl)-2-methyl-5-(2-morpholino-2-oxoethoxy)-3,4-dihydroquinoline-1(2H)-carboxylate]
6.30 to 7.30	5.00 to 6.00	COC(=O)N1c2ccc(-c3cnn(CC(C)(C)O)c3)c(OCC(=O)N3CCCC3)c2CC[C@@H]1C [I-464]
6.30 to 7.30	5.00 to 6.00	CC(=O)N1c2ccc(-c3cnn(CCO)c3)c(OC[C@H]3CCNC3)c2CC[C@@H]1C [I-440]
6.30 to 7.30	5.00 to 6.00	COC(=O)N1c2ccc(-c3cnn(CCO)c3)c(OCC(=O)N3CCCC3)c2CC[C@@H]1C [I-465]
6.30 to 7.30	5.00 to 6.00	CC(=O)N1c2ccc(-c3cnn(C4CC4)c3)c(OCC#N)c2CC[C@@H]1C [I-397]
6.30 to 7.30	5.00 to 6.00	COC(=O)N1c2ccc(-c3cnn(CCO)c3)c(OC[C@H]3CCC(=O)N3)c2CC[C@@H]1C [I-469]
≤ 6.30	5.00 to 6.00	COC(=O)N1c2ccc(-c3cnn(C4CC4)c3)c(OCS(N)(=O)=O)c2CC[C@@H]1C [I-28, (S)-methyl 6-(1-cyclopropyl-1H-pyrazol-4-yl)-2-methyl-5-(sulfamoylmethoxy)-3,4-dihydroquinoline-1(2H)-carboxylate]
≤ 6.30	≤ 5.00	CC(=O)N1c2cccc(OCC(=O)N(C)C)c2CC[C@@H]1C [I-606]
6.30 to 7.30	5.00 to 6.00	CC(=O)N1c2ccc(-c3cnn(C4CC4)c3)c(OC3COC3)c2CC[C@@H]1C [I-384]
> 7.30	5.00 to 6.00	CC(=O)N1c2ccc(-c3cnn(C4CC4)c3)c(OCc3ccccc3)c2CC[C@@H]1C [I-393]
≤ 6.30	5.00 to 6.00	CC(=O)N1c2ccc(-c3ccc(S(C)(=O)=O)cc3)c(OCC(=O)N(C)C)c2CC[C@@H]1C [I-483]
6.30 to 7.30	5.00 to 6.00	CC(=O)N1c2ccc(-c3cnn(CCO)c3)c(OCC(=O)N(C)C)c2CC[C@@H]1C [I-2, (S)-2-(1-acetyl-6-(1-(2-hydroxyethyl)-1H-pyrazol-4-yl)-2-methyl-1,2,3,4-tetrahydroquinolin-5-yloxy)-N,N-dimethylacetamide]
